# From patent US11629135B2 (JUBILANT PRODEL LLC, priority 2017, dated 2023)
# What was measured:
# CYP 2D6 = target: T1, CYP 2D6 (Homo sapiens, UniProt P10635); experiment: CYP inhibition in human liver microsomes (CYP2D6); format: in vitro ADME; conditions: hydroxylation of bufuralol, read-out: predicted IC50, CYP 2D6
# T1 construct: assessed in human liver microsomes (procured from GIBCO Invitrogen); tissue GIBCO Invitrogen; host or cells: human liver microsomes
# Experimental: CYP inhibition potential of compound was assessed in human liver microsomes (procured from GIBCO Invitrogen) against CYP3A4, 2D6, 2C9, 2C19 and 1A2 in the following sequential steps. Standard reaction mixture (final volume 300 μL) contained […] potassium phosphate buffer (pH 7.4), protein (0.1, 0.25, 0.5, 0.5 and 0.5 mg/mL concentration for CYP3A4, 2D6, 2C9 2C19 and 1A2 respectively) and compound (at eight different concentration levels ranging from […], added as 0.9 μL DMSO solution with a final DMSO concentration of […]). The mixtures were pre-incubated at 37±1° C. for 5 min. The reaction (in duplicate) was initiated by addition of 30 μL of NADPH (10 mM). Reaction was terminated at 10 min by adding 300 μL of acetonitrile. The activity of liver microsomes was confirmed with positive controls i.e., monitoring the hydroxylation of midazolam for CYP 3A4, hydroxylation of bufuralol for CYP 2D6, hydroxylation of diclofenac for CYP 2C9, hydroxylation of omeprazole for CYP2C19 and O-Deethylation for CYP 1A2. The reaction mixtures (obtained from the above studies) were extracted, processed and analyzed by LC-MS [Shimadzu SIL LC series (Kyoto, Japan) was coupled to an API-4000 Mass Spectrometer (MDS Sciex, Toronto, Canada)].
# [1] = Metabolic stability in liver microsomes (dog); format: in vitro ADME; conditions: dog liver microsomes 0.5 mg/mL, compound 1 μM, NADPH, up to 30 min
# Experimental: (§1) Metabolic Stability in Liver Microsomes
# (§2) Procedure: Potassium phosphate buffer (66.7 mM, pH 7.4) containing mouse or rat or dog or monkey or human liver microsomes (0.5 mg/mL) was pre-incubated separately with compound (1 μM) and positive control (verapamil, 1 μM) in a 37° C. water bath for 5 min. The reactions were initiated by adding 20 μL of 10 mM NADPH. Reactions without NADPH (0 and 30 min) were also incubated to rule out non-NADPH metabolism or chemical instability in the incubation buffer. All reactions were terminated using 200 μL of ice-cold acetonitrile containing internal standard at 0, 5, 15 and 30 min. The vials were centrifuged at 3000 rpm for 15 min. The reaction mixtures (obtained from the above studies) were extracted, processed and analyzed by LC-MS [Shimadzu SIL LC series (Kyoto, Japan) was coupled to an API-4000 Mass Spectrometer (MDS Sciex, Toronto, Canada)] to monitor the disappearance of compound.
# [2] = test system: RENCA renal cancer cell line; experiment: In vivo efficacy in RENCA renal model; set-up: species or system Balb/c mice; conditions: oral dosing
# Experimental: In Vivo Efficacy of Compound-45 in RENCA Renal Model (FIG. 1):
# RENCA renal cancer cell line was procured from ATCC, USA and grown in the recommended media and culture conditions. Cells in the exponential phase were mixed with equal volume of matrigel in a 1:1 ratio, followed by implantation of 1×10^6 cells/100 μl subcutaneously on the right flank of immunocompetant Balb/c mice (1 site/mouse). Tumor cells were engrafted at the site of injection within 1-2 weeks of implantation and treatment was initiated by randomizing mice into study groups of N=10, when the average tumor volume reached 100 mm^3. Tumor bearing mice were treated with Vehicle (oral), Vehicle (IP), Compound B (orally at 30 mg/kg dose, twice daily) or Anti-PD-L1 mAb (Clone 10F.9G2, BioXcell) intraperitoneally at 0.1 mg/mouse, Q4D. Tumor volume and mouse body weight was measured three times per week during treatment, until the tumor volume reached a maximum of 2000 mm^3. Tumor volume (mm^3) was calculated using the formula—(tumor length)×(tumor width)^2/2. For pharmacokinetic parameters of Compound B, plasma and tumors were isolated at the end of the study and analyzed. Tumor growth inhibition was calculated after normalizing the tumor volume on a given day to that on day 1 based on the formula below: % TGI=[1−(Treatment TVFinal−Treatment TVinitial)/(Vehicle TVFinal−Vehicle TVinitial)]*100
# [3] = Metabolic stability in liver microsomes (mouse); format: in vitro ADME; conditions: mice liver microsomes 0.5 mg/mL, compound 1 μM, NADPH, up to 30 min
# Experimental: as §1, §2
# [4] = Metabolic stability in liver microsomes (rat); format: in vitro ADME; conditions: rat liver microsomes 0.5 mg/mL, compound 1 μM, NADPH, up to 30 min
# Experimental: as §1, §2
# plasma proteins = experiment: Plasma protein binding by equilibrium dialysis; format: in vitro ADME, mouse; conditions: plasma, equilibrium dialysis
# Experimental: (§3) To evaluate the ability of compound to bind the plasma proteins, the most common approach of plasma protein binding using equilibrium dialysis was used. Compound was tested at a final concentration of 3 μM in mouse, rat, human or dog plasma. An aliquot of 150 μL plasma containing compound was added in first half (plasma side) of the well of 96-well micro-equilibrium dialysis device. An aliquot of 150 μL of 100 mM sodium phosphate buffer pH 7.4 was added in the second half (buffer side) of the well of 96-well HT equilibrium dialysis device. The plate containing plasma and buffer was equilibrated at 37±1° C. for 4.5 h, with constant shaking at 120 rpm on an orbital shaker. Samples were collected from respective halves after the completion of incubation time. The proteins were precipitated using organic solvents. The samples were subjected to centrifugation and the supernatants were analyzed analysis on LC-MS/MS.
# [5] = Plasma protein binding by equilibrium dialysis; format: in vitro ADME, mouse; conditions: pH 7.4; mouse plasma, 3 μM, equilibrium dialysis 4.5 h
# Experimental: as §3
# T1 sequence (P10635 whole entry): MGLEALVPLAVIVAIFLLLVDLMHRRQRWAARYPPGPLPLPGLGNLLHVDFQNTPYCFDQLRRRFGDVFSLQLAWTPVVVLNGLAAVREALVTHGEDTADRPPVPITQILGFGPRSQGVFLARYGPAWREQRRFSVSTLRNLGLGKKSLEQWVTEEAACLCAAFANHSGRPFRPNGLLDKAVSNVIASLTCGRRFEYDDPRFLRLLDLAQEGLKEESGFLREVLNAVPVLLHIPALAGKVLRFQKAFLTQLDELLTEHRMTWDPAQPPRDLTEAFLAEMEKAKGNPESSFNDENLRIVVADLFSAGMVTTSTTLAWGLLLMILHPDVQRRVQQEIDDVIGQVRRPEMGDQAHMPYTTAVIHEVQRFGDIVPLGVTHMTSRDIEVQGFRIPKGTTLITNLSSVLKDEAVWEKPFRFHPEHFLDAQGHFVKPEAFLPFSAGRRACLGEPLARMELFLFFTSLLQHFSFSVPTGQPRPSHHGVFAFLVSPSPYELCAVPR
smiles,measurement,setting,value
"COc1nc(OCc2cccc(-c3ccccc3)c2C)nc(OC)c1CN1CCCC[C@H]1C(=O)O [Compound 45, (S)-1-((4,6-dimethoxy-2-((2-methyl-[1,1′-biphenyl]-3-yl)methoxy)pyrimidin-5-yl)methyl)piperidine-2-carboxylic acid]",IC50,CYP 2D6,> 10 µM
same,Metabolic stability in liver microsomes,[1],> 80%
same,body weight during the dosing regimen,[2]; RENCA tumor bearing Balb/c mice,no significant body weight reduction
same,efficacy in RENCA renal model (tumor growth),"[2]; syngeneic Balb/c mice, 30 mg/kg twice daily, comparator Anti-PD-L1 mAb 0.1 mg/mouse IP Q4D",better or similar efficacy compared to PD-L1 monoclonal antibody
same,Metabolic stability in liver microsomes,[3],> 80%
same,Metabolic stability in liver microsomes,[4],> 80%
same,stability and recovery in plasma,plasma proteins,good
same,"fraction unbound at 4.5 h, 3 μM",[5],0.039
